Measured values from US7449465B2, “Triazolopyrimidine derivatives as glycogen synthase kinase 3 inhibitors” (Janssen Pharmaceutica, N.V., priority 2003, dated 2008).

Columns and labels:
GSK3alpha = GSK3alpha (Homo sapiens, UniProt P49840); assay: GSK3alpha assay (same as the GSK3beta assay, 0.25 ng/μl GSK3alpha); type: biochemical; conditions: ranges of pIC50 (−log IC50 (M)), 1 μM ATP, read-out: GSK3a pIC50 (converted)
Experimental: (§1) GSK3beta assays were performed at room temperature in a 100 μl reaction volume of 25 mM Tris (pH 7.4) containing 10 mM MgCl2.6H2O, 1 mM DTI, 0.1 mgiml BSA, 5% glycerol and containing 5.7 ng/μl GSK3β, 5 μM biotinylated phosphorylated CREB peptide, 1 μM ATP, 0.85 μCi/ml ATP-P^33 and a suitable amount of a test compound of formula (I). After one hour, the reaction was terminated by adding 70 μl of Stop mix (0.1 mM ATP, 5 mg/ml streptavidin coated PVT SPA bead pH 11.0). The beads to which the phosphorylated CREB peptide is attached were allowed to settle overnight and the radioactivity of the beads was counted in a microtiterplate scintillation counter and compared with the results obtained in a control experiment (without the presence of a test compound) in order to determine the percentage of GSK3β inhibition. The IC50 value, i.e. the concentration (M) of the test compound at which 50% of GSK3β is inhibited, was calculated from the dose response curve obtained by performing the above-described GSK3β assay in the presence of different amounts of the test compound.
The GSK3alpha assay was performed in the same way as described above for the GSK3beta assay except for the concentration of GSK3alpha which is 0.25 ng/μl.

GSK3β = GSK3β (Homo sapiens, UniProt P49841); assay: GSK3beta assay (SPA, biotinylated phosphorylated CREB peptide, ATP-P33); type: biochemical; conditions: ranges of pIC50 (−log IC50 (M)); 1 μM ATP, room temperature, one hour; read-out: GSK3b pIC50 (converted)
Experimental: as §1

Chain of GSK3alpha (P49840 whole entry, species assumed): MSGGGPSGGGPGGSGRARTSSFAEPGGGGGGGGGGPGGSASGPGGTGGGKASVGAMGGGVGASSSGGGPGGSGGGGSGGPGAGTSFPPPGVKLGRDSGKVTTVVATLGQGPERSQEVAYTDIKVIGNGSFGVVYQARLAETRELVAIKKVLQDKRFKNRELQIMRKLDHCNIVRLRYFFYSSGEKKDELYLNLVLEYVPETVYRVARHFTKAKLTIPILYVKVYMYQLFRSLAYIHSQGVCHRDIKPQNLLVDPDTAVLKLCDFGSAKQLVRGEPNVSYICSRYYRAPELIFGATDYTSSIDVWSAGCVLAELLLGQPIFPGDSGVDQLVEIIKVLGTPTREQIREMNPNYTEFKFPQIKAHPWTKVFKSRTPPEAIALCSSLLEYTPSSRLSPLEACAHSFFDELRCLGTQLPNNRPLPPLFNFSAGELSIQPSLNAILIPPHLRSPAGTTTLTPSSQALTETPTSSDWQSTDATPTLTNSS
Chain of GSK3β (P49841 whole entry, species assumed): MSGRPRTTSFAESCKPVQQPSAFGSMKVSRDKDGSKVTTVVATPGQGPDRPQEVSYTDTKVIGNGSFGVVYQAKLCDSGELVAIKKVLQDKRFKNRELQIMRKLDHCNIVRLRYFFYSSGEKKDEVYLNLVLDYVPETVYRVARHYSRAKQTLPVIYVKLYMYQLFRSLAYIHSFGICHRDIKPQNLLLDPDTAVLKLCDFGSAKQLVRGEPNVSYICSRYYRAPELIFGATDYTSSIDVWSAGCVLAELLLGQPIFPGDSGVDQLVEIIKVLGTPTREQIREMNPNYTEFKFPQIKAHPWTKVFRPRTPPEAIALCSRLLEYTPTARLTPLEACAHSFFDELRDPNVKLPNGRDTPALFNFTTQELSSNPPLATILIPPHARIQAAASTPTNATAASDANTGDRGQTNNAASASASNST

melting point	IC50 (GSK3alpha)	IC50 (GSK3β)	Compound
210 to 214 °C	< 1e-08 M	< 1e-08 M	OCc1cccc(-n2nnc3cnc(Nc4cccc(-c5cnco5)c4)nc32)c1 [Compound 96]
210 to 214 °C	< 1e-08 M	< 1e-08 M	COCC(=O)NCc1cccc(-n2nnc3cnc(Nc4cccc(-c5cnco5)c4)nc32)c1 [Compound 122]
156 to 160 °C	< 1e-08 M	< 1e-08 M	CC(=O)NCc1cccc(-n2nnc3cnc(Nc4cccc(-c5cnco5)c4)nc32)c1 [Compound 115]

Continued, compound first:

Compound	melting point	IC50 (GSK3alpha)	IC50 (GSK3β)
O=c1[nH]nc(-c2cccc(Nc3ncc4nnn(-c5cccc(F)c5)c4n3)c2)[nH]1 [Compound 1]	> 260 °C	< 1e-08 M	< 1e-08 M
Fc1cccc(-n2nnc3cnc(Nc4cccc(-c5cccnc5)c4)nc32)c1 [Compound 30]	208 to 212 °C	< 1e-08 M	< 1e-08 M
N#CCc1cccc(-n2nnc3cnc(Nc4cccc(-c5ccnc(N)n5)c4)nc32)c1 [Compound 87]	> 260 °C	< 1e-08 M	< 1e-08 M
Cn1nccc1-c1cccc(Nc2ncc3nnn(-c4ccccc4)c3n2)c1 [Compound 9]	216 °C	< 1e-08 M	< 1e-08 M
CN1CCN(c2ccc(Nc3ncc4nnn(-c5cccc(CC#N)c5)c4n3)cc2)CC1 [Compound 88]	210 to 212 °C	< 1e-08 M	< 1e-08 M
